In ChEMBL document CHEMBL1155005, “Ligands to the (IRAP)/AT4 receptor encompassing a 4-hydroxydiphenylmethane scaffold replacing Tyr2” (Bioorg Med Chem, 2008):
pKi: −log10 of the molar value.

Biological target: Aminopeptidase N (Homo sapiens, UniProt P15144)
Test: Inhibition of human recombinant APN expressed in HEK293 cells
Format: cell-based

Sequence of Aminopeptidase N (P15144 whole entry): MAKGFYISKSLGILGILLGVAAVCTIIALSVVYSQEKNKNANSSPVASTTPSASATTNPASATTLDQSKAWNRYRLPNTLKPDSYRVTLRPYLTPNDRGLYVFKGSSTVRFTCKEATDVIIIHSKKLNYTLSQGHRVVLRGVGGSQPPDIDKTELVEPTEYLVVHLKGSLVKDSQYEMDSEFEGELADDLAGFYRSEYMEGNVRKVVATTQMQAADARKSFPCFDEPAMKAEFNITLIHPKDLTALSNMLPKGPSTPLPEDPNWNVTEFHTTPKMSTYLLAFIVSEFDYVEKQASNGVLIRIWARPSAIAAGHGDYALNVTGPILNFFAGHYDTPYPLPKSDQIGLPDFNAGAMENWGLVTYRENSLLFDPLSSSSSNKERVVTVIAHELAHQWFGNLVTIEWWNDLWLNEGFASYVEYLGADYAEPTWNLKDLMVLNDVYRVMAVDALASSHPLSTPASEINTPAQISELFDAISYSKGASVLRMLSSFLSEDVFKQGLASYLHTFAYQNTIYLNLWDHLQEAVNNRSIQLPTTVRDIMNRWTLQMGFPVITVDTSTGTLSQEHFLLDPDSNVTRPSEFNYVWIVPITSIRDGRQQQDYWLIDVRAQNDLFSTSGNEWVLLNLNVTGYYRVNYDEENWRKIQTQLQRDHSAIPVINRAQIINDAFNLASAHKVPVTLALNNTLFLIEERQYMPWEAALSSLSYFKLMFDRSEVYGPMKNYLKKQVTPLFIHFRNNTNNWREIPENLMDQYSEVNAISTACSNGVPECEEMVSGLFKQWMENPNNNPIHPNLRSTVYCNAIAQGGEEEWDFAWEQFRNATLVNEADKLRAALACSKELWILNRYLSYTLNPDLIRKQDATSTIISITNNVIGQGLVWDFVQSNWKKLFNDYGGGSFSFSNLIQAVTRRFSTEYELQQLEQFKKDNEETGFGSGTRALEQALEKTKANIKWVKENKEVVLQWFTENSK

Row | Compound | pKi
1 | CC[C@@H](C)[C@H](NC(=O)c1cc(N)cc(Cc2ccc(O)cc2)c1)C(=O)NCc1ccccc1CC(=O)O | < 4.00
2 | Nc1cc(Cc2ccc(O)cc2)cc(C(=O)NCc2ccccc2CC(=O)O)c1 | < 4.00
